The values below come from US20020048812A1, “Isolation and in vitro differentiation of conditionally immortalized murine olfactory receptor neurons” (priority 2000, published 2002).

“Also recorded” adds a separate entry of the source.

Common to all, as to format: cell-based, mouse
In one test the test system is 3NA12 cells. The test is described as follows: Calcium imaging (Fura-2) of odorant responses in clone 3NA12. To be noted: 10 μM single odorant; for Cells responding to each odorant: 1256 cells; for Cells responding to the odorant (increase in intracellular calcium concentration): total of 1256 cells in nineteen experiments, permissive conditions. On the procedure:
Prior to experiments (2-4 days), cells were plated onto glass coverslips and incubated in permissive conditions. To prepare for stimulation, cells were loaded with Fura-2 ([…]) for 30 minutes at 33° C., washed, and allowed to equilibrate for a further 30 minutes at room temperature. At the beginning of the experiment, cells were washed (W) to determine whether the mechanical disturbance associated with changing solution affected intracellular calcium concentrations.
To determine whether cells from the 3NA12 clone were capable of functional responses to odorants, single odorants were applied to cells loaded with Fura-2. […] Since the onset of odorant receptor expression is at c. E13 in the rat (Strotmann et al., 1995), and each of the components of the signal transduction pathway is present in cells cultured in permissive conditions, cells at permissive conditions were chosen for all subsequent experiments.
Cloned olfactory receptor neurons were plated onto glass coverslips up to one week before imaging. On the day of analysis, the culture medium was removed and replaced with MDV containing 2 μM Fura-2-AM (Molecular Probes, Eugene, Oreg.) and 0.2% Pluronic F-127 (Sigma) dissolved in DMSO. Cells were incubated at appropriate culture temperatures (33° C. or 37° C.) for at least 30 minutes, rinsed and allowed to equilibrate in medium for 30 minutes prior to experiments. Additionally, to ensure that a response could not be induced mechanically, each experiment was started by washing the cells with bath solution in the same manner used in odorant application. For solution exchange, 5 ml of bath solution or odorant test solution was pipeffed manually into the bath (volume, 300 μl) fitted with a continual suction pump. This ensured complete replacement of the bath solution with the incoming solution without altering bath volume. Single odorants were applied to the cloned cell line 3NA12 and mixtures of odorants were applied to primary cultures of mouse olfactory bulb neurons and rat ORNs. […] When single odorants were used, they were taken from Mixture 2. Stock solutions of odorants (20 mM in DMSO) were made up every second day and diluted 1:2000 in bath solution (final concentration, 10 μM each) within seconds of application. The bath solution contained 140 mM NaCl, 5 mM KCl, 2 mM CaCl2, 10 mM HEPES and 10 mM glucose at pH 7.4. Calcium imaging was performed as described previously (Krautwurst et al., 1998; Grynkiewicz et al., 1985), in which ratiometric measurements were obtained using the Zeiss/Attofluor-Ratiovision imaging system on a Zeiss Axiovert 135 microscope fitted with an F Fluor 20×/1.30 lens. Cells were illuminated at 340 nm and 380 nm and the emission at 510 nm was monitored using an intensified CCD camera. The Attofluor-Ratiovision software was used to derive the Ca^2+-dependent ratio. Solutions of CaCl2 (1 mM) and EDTA (1 mM) containing Fura-2 pentasodium salt ([…], Molecular Probes) were used to provide a two-point calibration of the experimental set-up as directed by the instrument manufacturer (Atto Instruments, Rockville, Md.).
Background: Calcium flux is commonly read through the fluorescence of an indicator in the cells.

Test [1] concerns NST+ cells in the heterogeneous culture. The test is described as follows: Counting NST+ cells (anti-NST labeling) in heterogeneous olfactory cell cultures with growth factors. The settings on record: for Effect on the number of NST+ cells (in words): permissive conditions (33° C.). How it is done: FIG. 2A. Interferon causes a significant, dose-dependent increase in the number of NST+ cells in the heterogeneous culture, with an EC50 of 0.4 U.ml^−1. Cells were incubated at 33° C. and were stained with anti-NST and rhodamine-coupled secondary antibodies seven days after plating. Cell counts were obtained from ten randomly selected areas in each experiment. Data were normalized to the mean number of NST+ cells in the absence of interferon and each point represents the mean ±S.E.M from three experiments.
FIG. 2B. EGF (•) and NGF (□) both have mitogenic effects in permissive conditions over and above the effect of interferon. NST+ cells were counted as described in (A) and were normalized to baseline levels in the presence of interferon (40 U.ml^−1). […] Except for the presence of interferon (40 U.ml^−1), all experimental conditions were as in A.
To determine the optimal conditions for cell survival, growth, differentiation and maturation, cells were cultured in permissive and non-permissive conditions in the presence of interferon, EGF, NGF, BDNF and NT-3. […] The effects of EGF, NGF, BDNF and NT-3 on cell maturation in non-permissive culture conditions were
To keep the amount of expressed TAg to the minimum required for immortalization (Noble et al., 1995), heterozygous offspring from homozygous male H-2K^b-tsA58 transgenic and C57B1 female mice (Charles River Laboratories, Wilmington Mass., and Jackson Laboratory, Bar Harbor, Me., respectively) were used to generate the conditionally immortal neuronal cell culture. Cells were isolated in a procedure modified from a previously established technique (Ronnett et al., 1991). Briefly, post-natal day 1-3 animals were decapitated and the heads were sectioned longitudinally. The olfactory epithelium and nasal septum were removed and placed in an Eppendorf tube containing 500 μl culture medium. The culture medium consisted of Minimum Essential Medium in which the L-valine has been replaced by D-valine (MDV). This was supplemented with 10% fetal bovine serum (FBS), 4 mM glutamine, kanamycin (100 μg.ml^−1), gentamicin (50 U.ml^−1) and amphotericin B (2.5 μg.ml^−1; all from Gibco BRL, Gaithersburg, Md.). The MDV medium was chosen because fibroblasts lack D-amino acid oxidase and the reduction of L-valine inhibits fibroblast survival and growth (Gilbert et al., 1986). Tissue was centrifuged at low speed for two minutes and then most of the medium was removed. The cell pellet was chopped briefly with a pair of fine-point scissors before being resuspended in supplemented cell culture medium. The resultant cell clumps and cell suspension were plated out onto 2- or 4-chamber glass slides (Nunc, Naperville, Ill.) or plastic dishes (Fisher Scientific, Pittsburgh, Pa.). To enhance ORN adhesion, all cell culture materials were pretreated with laminin (0.125 mg.ml^−1 in serum-free media, Collaborative Biomedical Products, Bedford, Mass.) for at least 12 hours, prior to plating. Cells were maintained in culture at 33° C. (the permissive temperature for the SV40 TAg) and, to stimulate transcription of the transgene, the culture medium was supplemented with murine γ-interferon (40 U.ml^−1, Genzyme, Cambridge, Mass.). Provisionally, in permissive conditions, the cell culture medium was supplemented with epidermal growth factor (EGF, 20 ng.ml^−1, Gibco BRL) and 2.5 S nerve growth factor (NGF, 10 ng.ml^−1, Gibco BRL) before thorough characterizations of their effects were made in later experiments.
To determine optimum conditions for cell survival, growth, differentiation or maturation, numerous combinations of culture conditions were tested. These included i) removal of the olfactory epithelium from newborn, 4-week-old, and sexually mature animals, ii) subjecting tissue to digestion by trypsin (Gibco BRL, 0.5 g.l^−1 for 60 minutes at 37° C.), iii) addition of growth factors to the culture medium and iv) the use of diverse culture media. […]

The test system of test [2] is olfactory marker protein (OMP). In words: OMP expression by Western blot in cells in non-permissive conditions. To be noted: 37° C., heterogeneous cell cultures, 15 μg protein per lane. On the procedure:
FIG. 2C. Effects of EGF, NGF, BDNF and NT-3 on OMP expression as determined by Western blot. Cells were maintained in non-permissive conditions at 37° C. in the absence of growth factors (C) or in presence of EGF (E), NGF (N), BDNF (B) or NT-3 (3). Samples were isolated from the heterogeneous cell cultures and from olfactory tissue (T), and were separated on a SDS-polyacrylamide gel (15 μg protein per lane). OMP is a 19 kD protein and, in situ, is expressed only in mature olfactory receptor neurons. OMP was not detected in control cells (C), cultured in the absence of growth factors or in cells incubated in the presence of EGF.
assayed by Western blot detection of olfactory marker protein (OMP), a marker of mature olfactory receptor neurons (Margolis, 1988).
Cells were always maintained in permissive culture conditions except when attempts were made to obtain a differentiated phenotype through transgene inactivation. In this case, cells were incubated in non-permissive culture conditions, i.e. at 37° C. in γ-interferon-free media for seven days, before the effects of transgene inactivation were determined. The effects of EGF, NGF, BDNF and NT-3 in promoting cell maturation/differentiation were assessed and, based on those experiments, BDNF and NT-3 were routinely added to the culture medium for cells in non-permissive culture conditions. In both culture environments, the air was kept humidified and contained 5% CO2.
Cells were scraped into a cold isolation buffer containing 20 mM Na(N-tris[hydroxymethyl]methyl-2-aminoethanesulfonic acid) (Na TES), 10 mM mannitol and 1% Triton X-100 at pH 7.4. The isolation buffer was supplemented with phenylmethylsulfonyl fluoride (30 μg.ml^−1), leupeptin (2 μg.ml^−1), benzamidine (16 μg.ml^'1), pepstatin (2 μg.ml^−1), and lima bean trypsin inhibitor (50 μg.ml^−1) to prevent protease activity. After five freeze/thaw cycles, cell extracts were centrifuged at 2,000 g for 5 minutes to pellet nuclei and cell debris. […]
In general terms: Immunoblotting shows a protein as a band on a membrane.

The mark [3] stands for this setting: 33° C., 100 ng.ml^−1, in the presence of 40 U.ml^−1 interferon, normalized to that point.

In the case of `CC(=O)c1ccccc1` [acetophenone], in the test on 3NA12 cells, the “Cells responding to each odorant” value is ~1% and the “Cells responding to the odorant (increase in intracellular calcium concentration)” value came out at 15 cells.

For “Interferon: murine γ-interferon (Genzyme), stimulates transcription of the transgene”, in test [1] (33° C., permissive, seven days after plating, sigmoidal curve fit), the “EC50 (increase in number of NST+ cells)” value was determined as 0.4 U.ml^−1. The “Normalized # of NST+ Cells” value was determined as 2.0 ± 0.2 in test [1] (33° C., interferon 40 U.ml^−1, normalized to NST+ cells cultured in the absence of interferon) and 1.9 ± 0.1 in test [1] (37° C., interferon 40 U.ml^−1, normalized to absence of interferon). The “Effect on the number of NST+ cells (in words)” value (shortened to “Effect on the number”) in test [1] is reported as “significant increase”.

With L-carvone, in the test on 3NA12 cells, the “Cells responding to each odorant” value is listed as ~1% and the “Cells responding to the odorant (increase in intracellular calcium concentration)” value was 16 cells.

Consider “EGF: epidermal growth factor (Gibco BRL)”, for which the “Normalized # of NST+ Cells” value in test [1] (33° C., 10 ng.ml^−1, in the presence of 40 U.ml^−1 interferon, normalized to that point) was 1.7 ± 0.2. The “Effect on the number” value in test [1] is on record as “increased the number of NST+ cells; also recorded: greatest increase of NST+ cells”.

For the molecule `CCCCCCC=O` [heptaldehyde], in the test with 3NA12 cells, the “Cells responding to each odorant” value is ~1% and the “Cells responding to the odorant (increase in intracellular calcium concentration)” value amounted to 17 cells.

B1: NGF: 2.5 S nerve growth factor (Gibco BRL) (protein, UniProt P01139 122-241, looked up)
Beta-nerve growth factor: SSTHPVFHMGEFSVCDSVSVWVGDKTTATDIKGKEVTVLAEVNINNSVFRQYFFETKCRASNPVESGCRGIDSKHWNSYCTTTHTFVKALTTDEKQAAWRFIRIDTACVCVLSRKATRRG
modifications: Beta-nerve growth factor
For the molecule B1, in test [2], the “OMP expression detected by Western blot (in words)” value is given as “barely detectable”. Moreover, the “Normalized # of NST+ Cells” value in test [1] (setting [3]) is 1.5 ± 0.2. Moreover, in test [1], the “Effect on the number” value was “increased the number of NST+ cells”.

B2: BDNF: brain-derived neurotrophic factor (Peprotech) (protein, UniProt P23560 129-247, looked up)
Neurotrophic factor BDNF: HSDPARRGELSVCDSISEWVTAADKKTAVDMSGGTVTVLEKVPVSKGQLKQYFYETKCNPMGYTKEGCRGIDKRHWNSQCRTTQSYVRALTMDSKKRIGWRFIRIDTSCVCTLTIKRGR
modifications: Neurotrophic factor BDNF
For B2, the “OMP expression detected by Western blot (in words)” value in test [2] is recorded as “significant expression of OMP could be observed; also recorded: to a lesser degree, was detected”. For the same molecule, the “Normalized # of NST+ Cells” value in test [1] (setting [3]) was 1.3 ± 0.2; in test [1] (37° C., 100 ng.ml^−1) it was 1.3 ± 0.2. Moreover, the “Effect on the number” value in test [1] is given as “no effect”.
